Converted amounts (≈) assume the structure as drawn. Read-outs that look alike come from different tables or passages of the source.
Key:
[1] = CHI Log D procedure; format: physicochemical; details: for CHI Log D: pH 7.4; for chromatographic logD: pH 7.4, CHI Log D
[2] = target: T1, full-length beta-Catenin (Uniprot ID P35222) (Homo sapiens, UniProt P35222); assay: Fluorescence polarization IC50 (beta-catenin / 5FAM-TCF4 10-53 competition); format: binding
T1 construct: 10 nM full-length beta-Catenin (Uniprot ID P35222)
T1 sequence (P35222 1-781): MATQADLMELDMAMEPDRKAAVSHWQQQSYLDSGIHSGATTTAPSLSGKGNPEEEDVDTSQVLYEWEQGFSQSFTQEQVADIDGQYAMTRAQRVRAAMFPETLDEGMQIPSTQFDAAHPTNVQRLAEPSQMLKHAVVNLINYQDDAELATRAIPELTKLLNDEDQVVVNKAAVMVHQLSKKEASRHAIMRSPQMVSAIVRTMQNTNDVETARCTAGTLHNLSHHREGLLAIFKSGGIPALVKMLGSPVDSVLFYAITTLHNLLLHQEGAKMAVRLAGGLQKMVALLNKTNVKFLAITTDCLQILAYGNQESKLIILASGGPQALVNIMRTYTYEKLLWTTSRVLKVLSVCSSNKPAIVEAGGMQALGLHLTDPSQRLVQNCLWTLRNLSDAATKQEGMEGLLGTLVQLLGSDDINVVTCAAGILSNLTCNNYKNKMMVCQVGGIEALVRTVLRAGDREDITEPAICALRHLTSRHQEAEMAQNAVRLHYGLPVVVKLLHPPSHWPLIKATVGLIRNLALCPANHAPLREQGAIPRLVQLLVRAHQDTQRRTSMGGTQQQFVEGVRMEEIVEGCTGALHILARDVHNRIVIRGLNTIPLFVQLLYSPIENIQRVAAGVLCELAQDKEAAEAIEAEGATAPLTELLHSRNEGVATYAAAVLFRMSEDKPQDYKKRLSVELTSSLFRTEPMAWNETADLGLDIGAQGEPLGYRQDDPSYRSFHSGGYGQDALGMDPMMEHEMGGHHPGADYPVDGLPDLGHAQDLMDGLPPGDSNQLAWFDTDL

[3] = Solubility in PBS; format: physicochemical
Summary of the method: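 The PBS solution was ultracentrifuged and the supernatant analyzed by HPLC. Its peak area was divided by that of a 50 μM peptide DMSO reference injection and multiplied by 50 uM to give solubility.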

[4] = fluorescence polarization, read-out: beta-Catenin FP IC50
[5] = Table E2-1, read-out: beta-Catenin FP IC50

SMILES	CHI Log D [1]	IC50 [2, 4]	IC50 ([2]; read-out: FP EC50)	Solubility [3]	chromatographic logD [1]	IC50 [2, 5]	Solubility ([3]; Solubility (uM))	IC50 ([2]; fluorescence polarization, beta-catenin, read-out: FP EC50)
CC(=O)N1CCC[C@]12CC=CCCCC1(CCCC=CCCCCCC[C@@](C)(C(=O)N[C@@H](Cc3ccsc3)C(=O)N[C@@H](Cc3csc4ccccc34)C(=O)N[C@@H](CCC(N)=O)C(N)=O)NC(=O)[C@H](CC(N)=O)NC(=O)[C@H](Cc3ccccc3)NC(=O)[C@H](C)NC(=O)[C@H](C)NC(=O)[C@H](CN(CC(=O)O)CC(F)(F)F)NC(=O)[C@H](CC(=O)O)NC1=O)NC(=O)[C@H](CC1CCCCC1)NC(=O)[C@H](CC(=O)O)NC2=O (stereo partly drawn) [I-707, Ac-PL3-Asp-Cha-B5-Asp-TfeGA-Ala-Ala-Phe-Asn-S8-3Thi-BztA-Gln-NH2]	2.963	46 nM	46 nM	48 µM (≈ 96.6 µg/mL)				
CC(=O)N1CCC[C@]12CC=CCCCC1(CCCC=CCCCCCC[C@@](C)(C(=O)N[C@@H](Cc3ccccc3)C(=O)N[C@@H](Cc3csc4ccccc34)C(=O)N[C@@H](CCC(N)=O)C(N)=O)NC(=O)[C@H](C)NC(=O)[C@H](Cc3ccc4ccccc4c3)NC(=O)[C@H](C)NC(=O)[C@H](C)NC(=O)[C@H](CC(=O)O)NC(=O)[C@H](CC(=O)O)NC1=O)NC(=O)[C@H](C)NC(=O)[C@H](CC(=O)O)NC2=O (stereo partly drawn) [I-370, Ac-PL3-Asp-Ala-B5-Asp-Asp-Ala-Ala-2NapA-Ala-S8-Phe-BztA-Gln-NH2]					2.18	1560 nM	47 µM (≈ 85.5 µg/mL)	
CC(=O)N1CCC[C@]12CC=CCCCC1(CCCC=CCCCCCC[C@@](C)(C(=O)N[C@@H](Cc3ccccc3)C(=O)N[C@@H](Cc3csc4ccccc34)C(=O)N[C@@H](CCC(N)=O)C(N)=O)NC(=O)[C@H](CC(N)=O)NC(=O)[C@H](Cc3ccccc3)NC(=O)[C@H](C)NC(=O)[C@H](C)NC(=O)[C@H](CC(=O)O)NC(=O)[C@H](CC(=O)O)NC1=O)NC(=O)[C@H](C)NC(=O)[C@H](CC(=O)O)NC2=O (stereo partly drawn) [I-344, Ac-PL3-Asp-Ala-B5-Asp-Asp-Ala-Ala-Phe-Asn-S8-Phe-BztA-Gln-NH2]	1.977			44 µM (≈ 79.8 µg/mL)		42 nM		42 nM
CC(=O)N1CCC[C@]12CC=CCCCC1(CCCC=CCCCCCC[C@@](C)(C(=O)N[C@@H](Cc3ccccc3)C(=O)N[C@@H](Cc3csc4ccccc34)C(N)=O)NC(=O)[C@H](CC(N)=O)NC(=O)[C@H](Cc3ccccc3)NC(=O)[C@H](C)NC(=O)[C@H](C)NC(=O)[C@H](CCC(=O)O)NC(=O)[C@H](CC(=O)O)NC1=O)NC(=O)[C@H](CC1CCCCC1)NC(=O)[C@H](CC(=O)O)NC2=O (stereo partly drawn) [I-627, Ac-PL3-Asp-Cha-B5-Asp-Glu-Ala-Ala-Phe-Asn-S8-Phe-BztA-NH2]	3.002	338 nM	338 nM	47 µM (≈ 83.7 µg/mL)				
CC[C@H](C)[C@@H]1NC(=O)[C@H](CC(=O)O)NC(=O)[C@]2(CC=CCCCC3(CCCC=CCCCCCC[C@@](C)(C(=O)N[C@@H](Cc4ccccc4)C(=O)N[C@@H](Cc4csc5ccccc45)C(=O)N[C@H](C(N)=O)C(C)C)NC(=O)[C@H](CCC(N)=O)NC(=O)[C@H](Cc4ccccc4)NC(=O)[C@H](C)NC(=O)[C@H](C)NC(=O)[C@H](CCC(=O)O)NC(=O)[C@H](CC(=O)O)NC3=O)NC1=O)CCCN2C(C)=O (stereo partly drawn) [I-645, Ac-PL3-Asp-Ile-B5-Asp-Glu-Ala-Ala-Phe-Gln-S8-Phe-BztA-Val-NH2]	2.677	395 nM	395 nM	40 µM (≈ 74.2 µg/mL)				
COC[C@@H]1NC(=O)[C@H](CC(=O)O)NC(=O)[C@]2(CC=CCCCC3(CCCC=CCCCCCC[C@@](C)(C(=O)N[C@@H](Cc4ccccc4)C(=O)N[C@@H](Cc4csc5ccccc45)C(=O)N[C@@H](CCC(N)=O)C(N)=O)NC(=O)[C@H](C(C)C)NC(=O)[C@H](Cc4ccccc4)NC(=O)[C@H](C)NC(=O)[C@H](C)NC(=O)[C@H](CC(=O)O)NC(=O)[C@H](CC(=O)O)NC3=O)NC1=O)CCCN2C(C)=O (stereo partly drawn) [I-345, Ac-PL3-Asp-S(OMe)-B5-Asp-Asp-Ala-Ala-Phe-Val-S8-Phe-BztA-Gln-NH2]					2.14	134 nM	49 µM (≈ 89.6 µg/mL)	
